In patent US6518243B1, “Desleucyl glycopeptide antibiotics and methods of making same” (Trustees of Princeton University, priority 1999, dated 2003):

How the values were obtained:
Assay in all cases: Zone of inhibition screen, 96 well agar array format
Assay type in all cases: cell-based
Design in all cases: scale not given here
[1] = system: S. aureus (ATCC 29213)
In short: (§1)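 Compounds are screened one by one for antibacterial effect in an agar array of 96 wells, using the same set of strains throughout.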

[2] = system: S. epidermidis (ATCC 12228)
In short: as §1

[3] = system: E. faecalis (CL 4877)
In short: as §1

[4] = zone of inhibition relative to 1 mg/ml stock solution of p-chlorobiphenylvancomycin
[5] = zone of inhibition relative to 1 mg/ml p-chlorobiphenylvancomycin

CC1OC(OC2C(Oc3c4cc5cc3Oc3ccc(cc3Cl)C(O)C3NC(=O)C(NC(=O)C5NC(=O)C(CC(N)=O)NC(=O)C(NC(=O)C5CNCCO5)C(O)c5ccc(c(Cl)c5)O4)c4ccc(O)c(c4)-c4c(O)cc(O)cc4C(C(=O)O)NC3=O)OC(CO)C(O)C2O)CC(C)(NCc2ccc(-c3ccc(Cl)cc3)cc2)C1O (mixture of isomers) [Compound 23]
2: zone score, S. aureus ATCC 29213 [1, 4] | zone score, S. epidermidis ATCC 12228 [2, 4] | zone score, E. faecalis CL 4877 [3, 4]

CC(=O)N1CCCC1C(=O)NC1C(=O)NC(CC(N)=O)C(=O)NC2C(=O)NC3C(=O)NC(C(=O)NC(C(=O)O)c4cc(O)cc(O)c4-c4cc3ccc4O)C(O)c3ccc(c(Cl)c3)Oc3cc2cc(c3OC2OC(CO)C(O)C(O)C2OC2CC(C)(NCc3ccc(-c4ccc(Cl)cc4)cc3)C(O)C(C)O2)Oc2ccc(cc2Cl)C1O (mixture of isomers) [Compound 176]
2: zone score, S. aureus ATCC 29213 [1, 4] | zone score, S. epidermidis ATCC 12228 [2, 4] | zone score, E. faecalis CL 4877 [3, 4]

CC(NC(N)=O)C(=O)NC1C(=O)NC(CC(N)=O)C(=O)NC2C(=O)NC3C(=O)NC(C(=O)NC(C(=O)O)c4cc(O)cc(O)c4-c4cc3ccc4O)C(O)c3ccc(c(Cl)c3)Oc3cc2cc(c3OC2OC(CO)C(O)C(O)C2OC2CC(C)(NCc3ccc(-c4ccc(Cl)cc4)cc3)C(O)C(C)O2)Oc2ccc(cc2Cl)C1O (mixture of isomers) [Compound 206]
2: zone score, S. aureus ATCC 29213 [1, 5] | zone score, S. epidermidis ATCC 12228 [2, 5] | zone score, E. faecalis CL 4877 [3, 5]

CCC(O)C(=O)NC1C(=O)NC(CC(N)=O)C(=O)NC2C(=O)NC3C(=O)NC(C(=O)NC(C(=O)O)c4cc(O)cc(O)c4-c4cc3ccc4O)C(O)c3ccc(c(Cl)c3)Oc3cc2cc(c3OC2OC(CO)C(O)C(O)C2OC2CC(C)(NCc3ccc(-c4ccc(Cl)cc4)cc3)C(O)C(C)O2)Oc2ccc(cc2Cl)C1O (mixture of isomers) [Compound 286]
2: zone score, S. aureus ATCC 29213 [1, 5] | zone score, S. epidermidis ATCC 12228 [2, 5] | zone score, E. faecalis CL 4877 [3, 5]

CC(=O)NC(Cc1cnc[nH]1)C(=O)NC1C(=O)NC(CC(N)=O)C(=O)NC2C(=O)NC3C(=O)NC(C(=O)NC(C(=O)O)c4cc(O)cc(O)c4-c4cc3ccc4O)C(O)c3ccc(c(Cl)c3)Oc3cc2cc(c3OC2OC(CO)C(O)C(O)C2OC2CC(C)(NCc3ccc(-c4ccc(Cl)cc4)cc3)C(O)C(C)O2)Oc2ccc(cc2Cl)C1O (mixture of isomers) [Compound 324]
2: zone score, S. aureus ATCC 29213 [1, 5] | zone score, S. epidermidis ATCC 12228 [2, 5] | zone score, E. faecalis CL 4877 [3, 5]

CSCCC(NC=O)C(=O)NC1C(=O)NC(CC(N)=O)C(=O)NC2C(=O)NC3C(=O)NC(C(=O)NC(C(=O)O)c4cc(O)cc(O)c4-c4cc3ccc4O)C(O)c3ccc(c(Cl)c3)Oc3cc2cc(c3OC2OC(CO)C(O)C(O)C2OC2CC(C)(NCc3ccc(-c4ccc(Cl)cc4)cc3)C(O)C(C)O2)Oc2ccc(cc2Cl)C1O (mixture of isomers) [Compound 326]
2: zone score, S. aureus ATCC 29213 [1, 5] | zone score, S. epidermidis ATCC 12228 [2, 5] | zone score, E. faecalis CL 4877 [3, 5]

CC(N)C(=O)NC(C)C(=O)NC1C(=O)NC(CC(N)=O)C(=O)NC2C(=O)NC3C(=O)NC(C(=O)NC(C(=O)O)c4cc(O)cc(O)c4-c4cc3ccc4O)C(O)c3ccc(c(Cl)c3)Oc3cc2cc(c3OC2OC(CO)C(O)C(O)C2OC2CC(C)(NCc3ccc(-c4ccc(Cl)cc4)cc3)C(O)C(C)O2)Oc2ccc(cc2Cl)C1O (stereo not drawn) [Compound 35]
2: zone score, S. aureus ATCC 29213 [1, 4] | zone score, S. epidermidis ATCC 12228 [2, 4] | zone score, E. faecalis CL 4877 [3, 4]

COc1cc(OC)c(CNC(=O)CC(N)C(=O)NC2C(=O)NC(CC(N)=O)C(=O)NC3C(=O)NC4C(=O)NC(C(=O)NC(C(=O)O)c5cc(O)cc(O)c5-c5cc4ccc5O)C(O)c4ccc(c(Cl)c4)Oc4cc3cc(c4OC3OC(CO)C(O)C(O)C3OC3CC(C)(NCc4ccc(-c5ccc(Cl)cc5)cc4)C(O)C(C)O3)Oc3ccc(cc3Cl)C2O)c(OC)c1 (stereo not drawn) [Compound 45]
2: zone score, S. aureus ATCC 29213 [1, 4] | zone score, S. epidermidis ATCC 12228 [2, 4] | zone score, E. faecalis CL 4877 [3, 4]
